# US20210205292A1, “INHIBITORS OF CREB-CBP INTERACTION FOR TREATMENT OF LEUKEMIA” (The Board of Trustees of the Leland Stanford Junior …, priority 2016, published 2021)
# What was measured:
# HL-60 cells = assay: HL-60 viability, combination of Compound A with kinase inhibitors; format: cell-based, human; conditions: 48 hours
# [1] = system: CREB-bound genes in KG-1 cells; assay: RNA-Seq of KG-1 cells; format: cell-based
# Experimental: For Chip-Seq experiments, KG-1 cells were treated with 5 μM Compound A or DMSO for 6 hours. Cells were cross-linked with 1% formaldehyde at room temperature for 10 min and then incubated with […] for 5 min. After cross-linking, chromatin was digested by Micrococcal nuclease and then sonicated using SimpleChIP® Plus Enzymatic Chromatin IP Kit (Cell Signaling, Danvers, Mass.) following the manufacturer's protocol. Chromatin immunoprecipitations were carried out with anti-CREB antibody (Millipore, Billerica, Mass.) or a control IgG (Santa Cruz Biotechnology). The captured immunocomplexes containing bound transcriptional DNA fragments were eluted, with recovered DNA fragments used for PCR amplification. For RNA-Seq experiments, KG-1 cells were treated with Compound A (5 μM) or 0.1% DMSO for 12 hours. RNA was prepared using the Aurum Total RNA Mini Kit (Bio-Rad). Sample libraries were run using the Illumina sequencing platform. Two hundred million reads were collected on two biological replicates of the experiment. Libraries were prepared using the Illumina Truseq RNA samples prep kit per manufacturer's instructions. Fastq files were aligned using TopHat. Aligned BAM files were used for CuffDiff calculation of differentially expressed genes. CummeRbund R package was used to infer QC of the RNA-seq (GEO Submission GSE74928) [NCBI tracking system #17594369]. ChIP-seq analysis was performed. BETA analysis was used by inferring differentially expressed genes between DMSO and Compound A treated cells based on a fdr≤0.01 and gene distance of 100 kb (Galaxy/cistrome). DNA sequences enriched on ChIP-Seq were defined.
# To determine the functional specificity and downstream effects of Compound A in AML, the CREB transcriptome was first defined in KG-1 cells using CREB chromatin immunoprecipitation followed by high-throughput sequencing (CREB ChIP-Se). […] In this way, the ‘on-target’ effects of Compound A could be assessed.
# [2] = Plasma pharmacokinetics in NSG mice, quantitative mass spectrometry; format: in vivo; conditions: mouse, ip, 20 mg/kg/day, 20 mg/kg/day IP
# Experimental: FIG. 10, panels A-D, illustrates the non-toxicity and pharmacodynamics of compound Compound A. Panel A) Human AML patient sample cells (#186) were injected (2×10^6 cells) into 8 NSG mice, and mice were then treated with intravenous 0.1% DMSO or 2.3 mg/kg Compound A IV once daily. […] Compound A plasma concentration was measured by quantitative mass spectrometry. […] Panel C). […] Numbers shown are averages of values from 3 mice SE.
# To assess the potential in vivo toxicities of Compound A, four groups of five mice not injected with AML cells were treated with 2.3 mg/kg Compound A intravenously daily, or 20, 40 or 60 mg/kg intraperitoneally (IP) daily for 28 days.
# KG-1 cells = assay: Chemotherapy combination, isobolograms in KG-1 cells; format: cell-based; conditions: 48 hours
# Experimental: (§1) AML cell lines were purchased from ATCC and maintained with IMDM (Gibco) supplemented with 10% FBS (Fisher Scientific) and 1% PSG (Gibco). Cells were plated at a density of 2-4×10^5 cells/ml, and treated with various doses of Compound A in 0.1% DMSO or 0.1% DMSO alone. Cell counts and viability were determined using the Vi-CELL XR Cell Viability Analyzer (Beckman Coulter). HL-60 and KG-1 cells overexpressing CREB or CBP were generated using lentiviral gene delivery with subsequent puromycin selection and FACs sorting for GFP. CREB knockdown was achieved by infecting cells with a lentivirus expressing the shRNA sequence 5′-[…]-3′ (SEQ ID NO:). For chemotherapy combination experiments, combination index values were calculated using median effects analysis on Calcusyn software. Human patient bone marrow samples were cultured in DMEM plus 20% FBS and 1×PSG, supplemented with recombinant GM-CSF (20 ng/ml), G-CSF (20 ng/ml), SCF (50 ng/ml), IL-3 (20 ng/ml), and IL-6 (10 ng/ml). Cells were plated at a concentration of 1×10^5 cells/ml in a 12-well plate. Vehicle (0.1% DMSO) or Compound A (2 μM) was added for up to 72 hours. All samples contained >85% AML blasts and were not sorted prior to performing experiments. Immunostaining and flow cytometry analyses were performed according to standard procedures. All antibodies were purchased from BD Biosciences. Single cell suspensions of bone marrow culture were subsequently analyzed on a D×P10 flow cytometer (Cytek). Bone marrow from AML patients were collected through voluntary patient participation at University of California, Los Angeles (Los Angeles, Calif., USA) and Stanford University (Palo Alto, Calif., USA) in compliance with the Institutional Review Board regulations of each institution.
# To test the effects of CREB inhibition on AML cells, four AML cell lines were treated with doses of Compound A ranging from 100 pM to 10 μM for 48 hours. […] KG-1 cells were less sensitive to Compound A and expressed lower levels of CREB compared to HL-60 cells (FIG. 2, panel A). […]
# AML cell lines = assay: Viable cell count of AML cell lines (Vi-CELL); format: cell-based; conditions: four AML cell lines, 48 hours; range across lines, units printed with the values; read-out: IC50, 50% reduced viable cell count compared to DMSO-treated cells
# Experimental: as §1, with “Immunostaining and flow cytometry analyses were performed according to standard procedures. All antibodies were purchased from BD Biosciences.” left out, “Bone marrow from AML patients were collected through voluntary patient participation at University of California, Los Angeles (Los Angeles, Calif., USA) and Stanford University (Palo Alto, Calif., USA) in compliance with the Institutional Review Board regulations of each institution.” left out
compound,measurement,setting,value
"N#Cc1ccc(NC(=O)c2cc3ccccc3cc2O)cc1 [Compound A, N-(4-cyanophenyl)-3-hydroxy-2-naphthamide]",viability,HL-60 cells; Compound A alone,87.4±7.3%
same,viability,HL-60 cells; Compound A combined with ERK inhibitor,55.3±3.4%
same,viability,HL-60 cells; Compound A combined with RSK inhibitor,49.5±2.3%
same,number of CREB-bound genes with greater than 50% reduced expression,"[1]; 5 μM, 12 hours",602
same,number of CREB-bound genes with reduced expression,"[1]; 5 μM, 12 hours, of 4680 CREB-bound sites",2787
same,"target gene expression of other CBP-binding transcription factors (Rel, RelA, RelB, Foxo3, Foxo1, Myb)","[1]; KG-1 cells, RNA-Seq",no significant change
same,half-life,[2],4.3 h
same,interaction with daunorubicin and cytarabine (isobolograms),KG-1 cells,synergistic
same,Combination Index (CI),KG-1 cells; Compound A with cytarabine,less than 1
same,Combination Index (CI),KG-1 cells; Compound A with daunorubicin,less than 1
same,IC50,AML cell lines,870 to 2300 nM
